# Source: patent EP4001293A1, “TETRAPEPTIDE AND ITS USE” (Justus-Liebig-Universität Gießen, priority 2020, dated 2022)
# Peptide text beside a SMILES is read from it.
# Assays:
# Assay type in all cases: cell-based
# [1] = tested on: Zonula Occludens-1 (ZO-1); assay: Stimulation of ZO-1 expression, fluorescence measurement; conditions: Sertoli-Zellen; Fig. 4B-4D
# Excerpt: Experimentell erfolgt die Quantifizierung der Stimulation der Bildung von ZO-1 in 93RS2 Sertoli-Zellen durch quantitative Auswertung der Messung der Expression von ZO-1. Der quantitative Messwert zur Beschreibung der Stimulation der Expression von ZO-1 ist die Häufigkeit (Frequenz), mit der mindestens ein bestimmter Wert ("Wert") der Fluoreszenzintensität gemessen wird. Die Bedeutung der Begriffe "Häufigkeit"/"Frequenz" und "Wert"/"Wert der Fluoreszenzintensität" ist dabei analog der Bedeutung im Zusammenhang mit der Alkalischen Phosphatase und bezieht sich hierbei auf Fig. 4F bzw. Fig. 4G bzw. Fig. 4H bzw. Fig. 4I. Die Häufigkeit des mindestens einen bestimmten Wertes der in den mit dem erfindungsgemäßen Tetrapeptid behandelten Zellen gemessenen Werte im direkten Vergleich mit der Häufigkeit des mindestens einen gleichen Wertes, die in Tetrapeptid-freien aber ansonsten gleich behandelten Kontrollzellen gemessen wird, beträgt ab dem Wert 70 mindestens 120 % der in den gleich behandelten Kontrollzellen gemessenen Häufigkeit ab dem Wert 70.
# Die Durchführung des Färbevorganges erfolgt bei allen Proben (Referenz, Vergleichsprobe mit Testosteron und Tetrapeptid) in gleicher Weise, so dass die Farbstärke (erkennbar in der photographischen Darstellung in Fig. 1A und Fig. 1B anhand der Grauwerte in der jeweiligen Abbildung) als Maß für die Stimulierung dient (je dunkler der Grauwert, umso stärker die Stimulation zur Ossifikation). […] Dem Fachmann sind diese Zusammenhänge bekannt, ebenso weiß er wie Untersuchungen der Expression von Enzymen, und somit auch der ALP, quantitativ durchgeführt werden, so dass darauf hier nur allgemein eingegangen werden muss. […] Im Rahmen der vorliegenden Ausführungsbeispiele (Beispielmessungen) wurden alle dem Fachmann bekannten Parameter, beispielsweise Lösungsmittel- und Pufferzusammensetzungen sowie -Konzentrationen, Temperaturen, Geräteeinstellungen (z. B. für die Messung der Fluoreszenzstärke) usw. in geeigneten Grenzen konstant gehalten, so dass die Versuchsergebnisse die beschriebenen quantitativ-vergleichbaren relativen Ergebnisse liefern. […]
# [2] = tested on: Fokalen Adhäsionskinase (FAK); assay: Stimulation/activation of focal adhesion kinase, fluorescence measurement; conditions: L6-Myoblasten
# Excerpt: (§1) Die Ausführungsbeispiele zeigen, dass die Tetrapeptide Seq ID 1-6 wenigstens die gleiche Wirksamkeit aufweisen wie Testosteron und die Testosteronanaloga. Dabei weisen sie als Tetrapeptide jedoch nicht die hormonbedingten Nebenwirkungen auf, da sie nur am membrangebundenen Androgenrezeptor ZIP-9 binden und nicht im Zellkern am klassischen Androgenrezeptor (AR). Eine besonders positive Wirkung kommt dem erfindungsgemäßen Tetrapeptid 1 Seq ID 1 zu. Die Wirksamkeit der erfindungsgemäßen Tetrapeptide Seq ID 1-6 zur Behandlung der Osteoporose, myodegenerativen Erkrankungen (zum Beispiel Muskeldystrophie, insbesondere jedoch Muskelatrophie) sowie der männlichen Infertilität wird experimentell in Zellkultur in einem charakteristischen Zellmodell gezeigt. Zur Verabreichung an Menschen und Tiere wird mindestens ein erfindungsgemäße Tetrapeptid als medizinisches Mittel in einer pharmazeutisch akzeptablen Komposition als Arzneimittel formuliert. Das medizinische Mittel wird zur Behandlung der Osteoporose, myodegenerativen Erkrankungen sowie der männlichen Infertilität bei Menschen und Tieren eingesetzt. Es löst dabei keine übermäßige Toxizität, Irritationen oder allergische Reaktionen aus. […]
# Claudin-5 = assay: Stimulation of Claudin-5 formation, fluorescence measurement; conditions: 93RS2 Sertoli-Zellen; relative to control sample without tetrapeptide
# Excerpt: (§2) Die besondere Wirksamkeit von Tetrapeptid Seq ID 1 umfasst weiterhin die Stimulierung der Bildung von Claudin-1 und Claudin-5 in Zellen. Claudine sind kleine Transmembranproteine, die in vielen Organismen, Menschen und Tieren vorkommen und in ihrem Aufbau sehr ähnlich sind. Sie haben entscheidende Funktionen zur Bildung einer funktionierenden Barriere in verschiedenen Epithelien. Es gibt zahlreiche […] von Claudinen, die weitgehend ubiquitär exprimiert sind und Grundfunktionen für die Bildung der Tight-Junction-Bänder übernehmen. Caudin-1 und Claudin-5 sind spezialisierte Claudine, die an der Blut-Hoden-Schranke der männlichen Gonaden exprimiert werden. Ihre Beteiligung an der Ausbildung und Aufrechterhaltung der Tight Junctions an der Blut-Hoden-Schranke schützt die männlichen Keimzellen vor Angriffen des eigenen Immunsystems. Somit gehen Defekte der Blut-Hoden-Schranke immer mit Infertilität einher. […] Experimentell erfolgt die Quantifizierung der Stimulation der Bildung von Claudin-1 und/oder Claudin-5 in der Zelle durch Fluoreszenzmessung. Der quantitative Messwert zur Beschreibung der Stimulation der Bildung von Claudin-1 und/oder Claudin-5 in 93RS2 Sertoli-Zellen ist die Fluoreszenzintensität der mit dem Tetrapeptid behandelten Zellen bei mikroskopischer Betrachtung im direkten Vergleich mit einer gleichbehandelten Kontrollprobe ohne Tetrapeptid.
# Myogenin = assay: Stimulation of myogenin formation, fluorescence measurement; conditions: L6-Myoblasten; relative to control sample without tetrapeptide
# Excerpt: as §1
# Claudin-1 = assay: Stimulation of Claudin-1 formation, fluorescence measurement; conditions: 93RS2 Sertoli-Zellen; relative to control sample without tetrapeptide
# Excerpt: as §2
# [3] = tested on: Alkalischen Phosphatase (ALP); assay: Expression of alkaline phosphatase, immunofluorescence; conditions: SAOS-2 Osteoblasten; for Expression der Alkalischen Phosphatase (grüne Fluoreszenz): Fig. 2A, 2B
# Excerpt: as §1, with “aus. Bevorzugt wird das medizinische Mittel umfassend mindestens ein erfindungsgemäßes Tetrapeptid Menschen oder Tieren in Form entweder oral, intramuskulär, intraossär, rektal, parenteral, intravenös, subkutan, intracisternal, intravaginal, intraperitoneal, intrathekal, intravasculär, lokal (Puder, Salbe oder Tropfen), in Sprayform oder als Pflaster verabreicht. Dosierungsformen für die örtliche Administration des medizinischen Mittels dieser Erfindung schließen Salben, Puder, Sprays oder Inhalationsmittel ein. Das mindestens eine erfindungsgemäße Tetrapeptid als medizinisches Mittel wird unter sterilen Bedingungen mit einem physiologisch akzeptablen Trägerstoff und möglichen Konservierungsmitteln, Puffern oder Treibmitteln, je nach Bedarf, vermischt. Ein Konservierungsmittel ist eine Chemikalie, die zugesetzt wird, um die Zersetzung zu verhindern.” for “aus.”
# L6-Myoblasten [4] = assay: Formation of myotubes (muscle fibres) from myoblasts; conditions: 9 Stunden Inkubation, Fig. 3B
# Excerpt: as §1
# SAOS-2-Zellen [5] = assay: Stimulation of ossification, Alizarin red staining
# Excerpt: Die Ausführungsbeispiele zeigen, dass die Tetrapeptide Seq ID 1-6 wenigstens die gleiche Wirksamkeit aufweisen wie Testosteron und die Testosteronanaloga. Dabei weisen sie als Tetrapeptide jedoch nicht die hormonbedingten Nebenwirkungen auf, da sie nur am membrangebundenen Androgenrezeptor ZIP-9 binden und nicht im Zellkern am klassischen Androgenrezeptor (AR). Eine besonders positive Wirkung kommt dem erfindungsgemäßen Tetrapeptid 1 Seq ID 1 zu. Die Wirksamkeit der erfindungsgemäßen Tetrapeptide Seq ID 1-6 zur Behandlung der Osteoporose, myodegenerativen Erkrankungen (zum Beispiel Muskeldystrophie, insbesondere jedoch Muskelatrophie) sowie der männlichen Infertilität wird experimentell in Zellkultur in einem charakteristischen Zellmodell gezeigt. Zur Verabreichung an Menschen und Tiere wird mindestens ein erfindungsgemäße Tetrapeptid als medizinisches Mittel in einer pharmazeutisch akzeptablen Komposition als Arzneimittel formuliert. Das medizinische Mittel wird zur Behandlung der Osteoporose, myodegenerativen Erkrankungen sowie der männlichen Infertilität bei Menschen und Tieren eingesetzt. Es löst dabei keine übermäßige Toxizität, Irritationen oder allergische Reaktionen aus. Bevorzugt wird das medizinische Mittel umfassend mindestens ein erfindungsgemäßes Tetrapeptid Menschen oder Tieren in Form entweder oral, intramuskulär, intraossär, rektal, parenteral, intravenös, subkutan, intracisternal, intravaginal, intraperitoneal, intrathekal, intravasculär, lokal (Puder, Salbe oder Tropfen), in Sprayform oder als Pflaster verabreicht. Dosierungsformen für die örtliche Administration des medizinischen Mittels dieser Erfindung schließen Salben, Puder, Sprays oder Inhalationsmittel ein. Das mindestens eine erfindungsgemäße Tetrapeptid als medizinisches Mittel wird unter sterilen Bedingungen mit einem physiologisch akzeptablen Trägerstoff und möglichen Konservierungsmitteln, Puffern oder Treibmitteln, je nach Bedarf, vermischt. Ein Konservierungsmittel ist eine Chemikalie, die zugesetzt wird, um die Zersetzung zu verhindern. Es hilft, das medizinische Mittel gegen Bakterien- und Pilzbefall oder Abbau durch Enzyme zu schützen, indem es das Wachstum von Bakterien oder Pilzen verhindern und/oder die Zersetzung des Mittels verlangsamt. Bevorzugt wird das medizinische Mittel dieser Erfindung als Lyophilisat hergestellt. Bevorzugt wird das medizinische Mittel dieser Erfindung oral verabreicht. Da das darin enthaltene mindestens eine Tetrapeptid sehr klein ist, wird es von proteolytischen Enzymen nicht so rasch abgebaut und kann seine Wirksamkeit am ZIP-9 Rezeptor sehr selektiv und sehr spezifisch entfalten. Die Tetrapeptide Seq ID 1-6 werden gemäß Verfahren, die der Fachmann kennt, einfach und mit geringen Kosten hergestellt. Sie weisen in lyophilisierter Form eine lange Lagerungsbeständigkeit und hohe Aktivität auf. Die Lagerung ist bei Raumtemperatur möglich. Ein Vorteil ist, dass aufgrund der hohen Spezifität nur geringe Mengen verabreicht werden müssen, um an den ZIP-9 Rezeptor zu binden und dort die positiven Effekte auszulösen. In einem besonderen Ausführungsbeispiel wird das Tetrapeptid Seq ID 1 verkapselt, damit es im Magen-Darm-Trakt nicht abgebaut (säure-hydrolysiert), sondern als Tetrapeptid in den Blutkreislauf aufgenommen wird. Dazu werden z.B. mesoporöse Silicapartikel verwendet, die die Bioverfügbarkeit verlängern. Alternativ werden an das Tetrapeptid Polymere angehängt, wie z.B. Polyethlenglycolgruppen (PEGylierung). […]
# [6] = tested on: Fokalen Adhäsionskinase (FAK); assay: Stimulation/activation of focal adhesion kinase, fluorescence measurement; conditions: L6-Myoblasten; 6 Stunden Inkubation; versus reference sample; Fig. 3A
# Excerpt: (§3) Zur Verabreichung an Menschen und Tiere wird mindestens ein erfindungsgemäße Tetrapeptid als medizinisches Mittel in einer pharmazeutisch akzeptablen Komposition als Arzneimittel formuliert. […] Bevorzugt wird das medizinische Mittel umfassend mindestens ein erfindungsgemäßes Tetrapeptid Menschen oder Tieren in Form entweder oral, intramuskulär, intraossär, rektal, parenteral, intravenös, subkutan, intracisternal, intravaginal, intraperitoneal, intrathekal, intravasculär, lokal (Puder, Salbe oder Tropfen), in Sprayform oder als Pflaster verabreicht. Dosierungsformen für die örtliche Administration des medizinischen Mittels dieser Erfindung schließen Salben, Puder, Sprays oder Inhalationsmittel ein. Das mindestens eine erfindungsgemäße Tetrapeptid als medizinisches Mittel wird unter sterilen Bedingungen mit einem physiologisch akzeptablen Trägerstoff und möglichen Konservierungsmitteln, Puffern oder Treibmitteln, je nach Bedarf, vermischt. Ein Konservierungsmittel ist eine Chemikalie, die zugesetzt wird, um die Zersetzung zu verhindern. […] Bevorzugt wird das medizinische Mittel dieser Erfindung als Lyophilisat hergestellt. Bevorzugt wird das medizinische Mittel dieser Erfindung oral verabreicht.
# [7] = tested on: Alkalischen Phosphatase (ALP); assay: Expression of alkaline phosphatase, immunofluorescence; conditions: SAOS-2 Osteoblasten; Fig. 2A, 2B
# Excerpt: as §3
# SAOS-2-Zellen [8] = assay: Stimulation of ossification, Alizarin red staining; remark: listed apart in the source
# Excerpt: as §3
# L6-Myoblasten [9] = assay: Formation of myotubes (muscle fibres) from myoblasts; conditions: 9 Stunden Inkubation, Fig. 3B; remark: listed apart in the source
# Excerpt: as §3
molecule,measurement,setting,value
GWG [Peptid-3],Expression von Zonula occludens-1 (ZO-1),[1],stimulierenden Wirkung
"CC[C@H](C)[C@H](N)C(=O)N[C@@H](C)C(=O)N1CCC[C@H]1C(=O)NCC(=O)O [Peptid-1, IAPG] (H-IAPG-OH)",grüne Fluoreszenz (FAK),"[2]; 6 Stunden Inkubation, versus reference sample, Fig. 3A",stärkere grüne Fluoreszenz
same,Fluoreszenzintensität (FAK),[2]; relative to control sample without tetrapeptide,wenigstens den dreifachen Wert
same,Fluoreszenzintensität (Claudin-5),Claudin-5,wenigstens den dreifachen Wert
same,Fluoreszenzintensität (Myogenin),Myogenin,wenigstens den dreifachen Wert
same,Expression von Zonula occludens-1 (ZO-1),[1],stimulierenden Wirkung
same,Fluoreszenzintensität (Claudin-1),Claudin-1,wenigstens den dreifachen Wert
same,Expression der Alkalischen Phosphatase (grüne Fluoreszenz),[3],Abnahme der grünen Fluoreszenz
same,"Häufigkeit (Frequenz) der Fluoreszenzintensität, Expression der ALP","[3]; ab dem Wert 65, % of frequency in tetrapeptide-free control cells",≤ 50%
same,Bildung von Myotuben (Muskelfasern),L6-Myoblasten [4],Myotuben (= Muskelfasern) gebildet
same,Bildung von Myotuben (Muskelfasern),L6-Myoblasten [4]; listed as Tetrapeptid Seq ID 1,die Muselfaserbildung stimuliert
same,Stimulierung der Ossifikation,"SAOS-2-Zellen [5]; 4 Tagen Inkubation, Fig. 1A",Stimulierung der Ossifikation
same,Stimulierung der Ossifikation,"SAOS-2-Zellen [5]; 11 Tagen Inkubation, Fig. 1B",Stimulierung der Ossifikation
same,Farbstärke (Alizarinrot),SAOS-2-Zellen [5]; relative to equally treated control sample without tetrapeptide,wenigstens den dreifachen Wert
"CC(C)[C@H](NC(=O)CN)C(=O)N[C@@H](CO)C(=O)NCC(=O)O [Peptid-2, GVSG] (H-GVSG-OH)",Expression von Zonula occludens-1 (ZO-1),[1],stimulierenden Wirkung
same,Expression der Alkalischen Phosphatase (grüne Fluoreszenz),[3],Abnahme der grünen Fluoreszenz
same,Stimulierung der Ossifikation,"SAOS-2-Zellen [5]; 4 Tagen Inkubation, Fig. 1A",Stimulierung der Ossifikation
same,Stimulierung der Ossifikation,"SAOS-2-Zellen [5]; 11 Tagen Inkubation, Fig. 1B",Stimulierung der Ossifikation
C[C@]12CC[C@H]3[C@@H](CCC4=CC(=O)CC[C@@]43C)[C@@H]1CC[C@@H]2O [Testosteron],grüne Fluoreszenz (FAK),[6],stärkere grüne Fluoreszenz
same,Expression der Alkalischen Phosphatase (grüne Fluoreszenz),[7],Abnahme der grünen Fluoreszenz
same,Stimulierung der Ossifikation,"SAOS-2-Zellen [8]; 4 Tagen Inkubation, Fig. 1A",Stimulierung der Ossifikation
same,Stimulierung der Ossifikation,"SAOS-2-Zellen [8]; 11 Tagen Inkubation, Fig. 1B",Stimulierung der Ossifikation
same,Bildung von Myotuben (Muskelfasern),L6-Myoblasten [9],Myotuben (= Muskelfasern) gebildet
